Values joined by “and” are separate entries in the source; they are usually repeats but may differ in a detail not shown here. Equal entries are not always repeated.
Tests used:
Type in all cases: biochemical
[1] = target: T1, hALDH2 (recombinant human mitochondria ALDH) (Homo sapiens, UniProt P05091); test: ALDH2 inhibition assay
T1 sequence (P05091 18-517): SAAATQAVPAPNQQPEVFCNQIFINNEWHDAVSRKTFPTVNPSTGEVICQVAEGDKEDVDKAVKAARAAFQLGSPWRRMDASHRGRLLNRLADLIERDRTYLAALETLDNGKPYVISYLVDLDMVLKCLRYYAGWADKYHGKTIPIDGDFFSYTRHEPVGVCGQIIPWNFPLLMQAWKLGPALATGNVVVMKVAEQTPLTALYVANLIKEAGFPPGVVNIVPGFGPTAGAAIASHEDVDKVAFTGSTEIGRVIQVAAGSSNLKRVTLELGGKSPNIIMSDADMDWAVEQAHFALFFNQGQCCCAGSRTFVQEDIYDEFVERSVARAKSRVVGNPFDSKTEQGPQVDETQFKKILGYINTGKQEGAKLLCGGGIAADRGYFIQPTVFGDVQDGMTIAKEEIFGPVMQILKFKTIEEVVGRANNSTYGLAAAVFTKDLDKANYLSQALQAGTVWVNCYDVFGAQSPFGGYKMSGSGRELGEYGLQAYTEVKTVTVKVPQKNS
Experimental: ALDH2 inhibition assays were performed in sodium phosphate buffer (50 mM, pH 7.4) containing 1.2 mM NAD^+ (Sigma N7004), 1 nM hALDH2 (recombinant human mitochondria ALDH), various concentrations of test compounds (from 0.03 nM to […]), and 0.15 mM freshly prepared formaldehyde solution (Ladd Research 20295). Reactions were initiated by the addition of formaldehyde and rates were recorded by monitoring NADH formation in a temperature controlled (25° C.) FluoroMax-2 Fluorimeter with excitation and emission wavelengths set at 340 and 460 nm, respectively. […] Normally, IC50 values were determined by fitting concentration-inhibition data to sigmoidal dose-response curves with two-floating parameters: IC50 and Hill coefficient. When tight binding situation was suspected, apparent Ki values were estimated by fitting dose-response data to Morrison's equation [Methods in Enzymology 63, 437-467, 1979].

hMAO-A = target: T2, hMAO-A (Homo sapiens, UniProt P21397); test: MAO-A inhibition assay; details: No = no inhibition; for hMAO-A inhibition up to 10 μM: printed in the IC50 hMAO-A column
T2 construct: purchased Sigma M7316
T2 sequence (P21397 1-527): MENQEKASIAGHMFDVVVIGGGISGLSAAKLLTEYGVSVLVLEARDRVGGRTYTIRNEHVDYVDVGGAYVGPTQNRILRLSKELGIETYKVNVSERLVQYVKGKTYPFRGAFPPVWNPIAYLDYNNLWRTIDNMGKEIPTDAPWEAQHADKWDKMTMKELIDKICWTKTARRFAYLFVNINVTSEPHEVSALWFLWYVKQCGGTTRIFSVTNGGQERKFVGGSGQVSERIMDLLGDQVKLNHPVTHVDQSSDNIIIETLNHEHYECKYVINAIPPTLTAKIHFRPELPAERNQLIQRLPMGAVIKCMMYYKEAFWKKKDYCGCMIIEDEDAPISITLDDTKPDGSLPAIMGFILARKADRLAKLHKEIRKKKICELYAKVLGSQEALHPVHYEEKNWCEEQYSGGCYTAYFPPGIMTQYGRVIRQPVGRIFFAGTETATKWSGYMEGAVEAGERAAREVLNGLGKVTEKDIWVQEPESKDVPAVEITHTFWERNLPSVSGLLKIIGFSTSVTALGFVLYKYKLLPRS
Experimental: (§1) MAO-A (Sigma M7316) and MAO-B (Sigma M7441) inhibition assays were conducted in 96-well micro-plates according to the method described by Zhou et al. [Analytical Biochemistry 253, 169-174, 1997]. […] Reactions were initiated by the addition of a pre-mixed solution of tyramine, horseradish peroxidase and Amplex Red, and were allowed to proceed at 37° C. for 30 min. Enzyme activities were determined by measuring absorbance at 570 nm (SpectralMax Plate reader), absorbance of oxidized Amplex Red generated by this horseradish peroxidase-coupled reaction. Nonspecifically formed products were determined in the presence of 2 and 10 µM clorgyline and deprenyl for MAO-A and MAO-B, respectively. IC50 values were determined by fitting concentration-inhibition data to sigmoidal dose-response curves with two-floating parameters: IC50 and Hill coefficient.

hMAO-B = target: T3, hMAO-B (Homo sapiens, UniProt P27338); test: MAO-B inhibition assay; details: No = no inhibition; for inhibition at 10 µM / hMAO-B inhibition at 10 μM: printed in the IC50 hMAO-B column
T3 construct: purchased Sigma M7441
T3 sequence (P27338 1-520): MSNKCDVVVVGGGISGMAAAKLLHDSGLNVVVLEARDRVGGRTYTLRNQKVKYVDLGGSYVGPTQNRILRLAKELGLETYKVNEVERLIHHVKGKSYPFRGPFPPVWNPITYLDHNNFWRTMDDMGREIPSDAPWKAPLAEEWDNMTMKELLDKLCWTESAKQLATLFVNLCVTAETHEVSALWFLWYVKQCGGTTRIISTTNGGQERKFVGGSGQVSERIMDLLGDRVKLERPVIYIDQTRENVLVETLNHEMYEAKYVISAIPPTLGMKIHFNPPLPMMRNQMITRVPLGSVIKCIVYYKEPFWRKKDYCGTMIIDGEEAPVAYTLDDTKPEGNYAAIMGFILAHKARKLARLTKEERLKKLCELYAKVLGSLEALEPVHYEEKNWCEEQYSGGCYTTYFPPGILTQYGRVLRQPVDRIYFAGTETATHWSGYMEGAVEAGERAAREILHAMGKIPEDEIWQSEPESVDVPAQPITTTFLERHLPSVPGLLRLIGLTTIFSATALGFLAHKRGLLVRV
Experimental: as §1

Compound	IC50 [1]	hMAO-A inhibition up to 10 μM (hMAO-A)	hMAO-B inhibition at 10 μM (hMAO-B)	further results
CC(Oc1ccc2c(=O)c(-c3ccc(O)cc3)coc2c1)c1nnc(-c2cccnc2)o1 (stereo not shown)	17 nM and 15 nM	No		inhibition at 10 µM (hMAO-B): 30%
CC(Oc1ccc2c(=O)c(-c3ccc(O)cc3)coc2c1)c1noc(-c2cc(F)cc(C(F)(F)F)c2)n1 (stereo not shown)	48 nM	No		inhibition at 10 µM (hMAO-B): 18%
3-(4-hydroxyphenyl)-7-(2-{4-[3-(trifluoromethyl)phenyl]piperazinyl}ethoxy)chromen-4-one [PT-124]	18 nM	No	21%	
3-(4-hydroxyphenyl)-7-[(6-pyrazolyl(3-pyridyl))methoxy]chromen-4-one [PT-52]	10 nM	No		
7-{2-[4-(3-chlorophenyl)piperazinyl]ethoxy}-3-(4-hydroxyphenyl)chromen-4-one [PT-123]	11 nM	No		
N#Cc1cc(-c2coc3cc(OCc4noc(-c5cc(F)cc(C(F)(F)F)c5)n4)ccc3c2=O)ccc1F [PT-9, 2-fluoro-5-[7-({5-[5-fluoro-3-(trifluoromethyl)phenyl](1,2,4-oxadiazol-3-yl)}methoxy)-4-oxochromen-3-yl]benzenecarbonitrile]				hALDH2 inhibition at 1 μM ([1]; at 1 μM, printed in the IC50 hALDH2 column): 25%
O=c1c(-c2ccc(O)cc2)coc2cc(OCc3noc(-c4cccc(F)c4)n3)ccc12 [PT-42, 7-{[5-(3-fluorophenyl)(1,2,4-oxadiazol-3-yl)]methoxy}-3-(4-hydroxyphenyl)chromen-4-one]		No		hMAO-B inhibition up to 10 μM (hMAO-B; up to 10 μM): No
O=c1c(-c2ccc(O)cc2)coc2cc(OCc3nc(-c4ccccc4)no3)ccc12 [PT-43, 3-(4-hydroxyphenyl)-7-[(3-phenyl(1,2,4-oxadiazol-5-yl))methoxy]chromen-4-one]				hMAO-A inhibition up to 30 μM (hMAO-A): No; hMAO-B inhibition up to 30 μM (hMAO-B): No
O=c1c(-c2ccc(O)cc2)coc2cc(OCc3nc(-c4ccc(Cl)cc4)no3)ccc12 [PT-44, 3-(4-hydroxyphenyl)-7-({3-[4-chlorophenyl](1,2,4-oxadiazol-5-yl)}methoxy)chromen-4-one]				hMAO-A inhibition up to 30 μM (hMAO-A): No; hMAO-B inhibition up to 30 μM (hMAO-B): No
O=c1c(-c2ccc(O)cc2)coc2cc(OCCc3n[nH]cc3-c3ccc(Cl)cc3)ccc12 [PT-51, 7-{2-[4-(4-chlorophenyl)pyrazolyl]ethoxy}-3-(4-hydroxyphenyl)chromen-4-one]	110 nM			
O=c1c(-c2ccc(O)cc2)coc2cc(OCc3cc(-c4cc(C(F)(F)F)cc(C(F)(F)F)c4)on3)ccc12 [PT-62, 7-({5-[3,5-bis(trifluoromethyl)phenyl]isoxazol-3-yl}methoxy)-3-(4-hydroxyphenyl)chromen-4-one]		No	no	
NC(=O)c1ccc(-c2coc3cc(OCc4noc(-c5cc(F)cc(C(F)(F)F)c5)n4)ccc3c2=O)cc1 [PT-72, 4-[7-({5-[3-fluoro-5-(trifluoromethyl)phenyl](1,2,4-oxadiazol-3-yl)}methoxy)-4-oxochromen-3-yl]benzamide]		No	No	
O=c1c(-c2ccc(O)cc2)coc2cc(OCc3nnc(-c4ccccc4Cl)o3)ccc12 [PT-80, 7-{[5-(2-chlorophenyl)(1,3,4-oxadiazol-2-yl)]methoxy}-3-(4-hydroxyphenyl)chromen-4-one]		No	No	
O=C(COc1ccc2c(=O)c(-c3ccc(O)cc3)coc2c1)c1ccccc1C(F)(F)F [PT-85, 3(4-hydroxyphenyl)-7-{2-oxo-2-[2-(trifluoromethyl)phenyl]ethoxy}chromen-4-one]		No	No	
O=c1c(-c2ccc(O)cc2)coc2cc(OCc3cncc(C(F)(F)F)c3)ccc12 [PT-94, 3-(4-hydroxyphenyl)-7-{[5-(trifluoromethyl)(3-pyridyl)]methoxy}chromen-4-one]		No	No	
O=c1c(-c2ccc(O)cc2)coc2cc(OCCCc3n[nH]cc3-c3ccc(Cl)cc3)ccc12 [PT-106, 7-{3-[4-(4-chlorophenyl)pyrazolyl]propoxy}-3-(4-hydroxyphenyl)chromen-4-one]	110 nM			
O=c1c(-c2ccc(O)cc2)coc2cc(OCc3nnc(-c4cccnc4)o3)ccc12 [PT-110, 3-(4-hydroxyphenyl)-7-[(5-(3-pyridyl)(1,3,4-oxadiazol-2-yl))methoxy]chromen-4-one]		No	No	
O=c1c(-c2ccc(O)cc2)coc2cc(OCc3nc(-c4cccnc4)no3)ccc12 [PT-114, 3-(4-hydroxyphenyl)-7-[(3-(3-pyridyl)(1,2,4-oxadiazol-5-yl))methoxy]chromen-4-one]		No	No	
O=c1c(-c2ccc(O)cc2)coc2cc(OCc3nc(-c4cccc(C(F)(F)F)c4)no3)ccc12 [PT-115, 3-(4-hydroxyphenyl)-7-({3-[3-(trifluoromethyl)phenyl](1,2,4-oxadiazol-5-yl)}methoxy)chromen-4-one]		No	No	
CNC(=O)c1coc(COc2ccc3c(=O)c(-c4ccc(O)cc4)coc3c2)n1 [PT-118, (2-{[3-(4-hydroxyphenyl)-4-oxochromen-7-yloxy]methyl}(1,3-oxazol-4-yl))-N-methylcarboxamide]		No	No	
COc1ccc2c(COc3ccc4c(=O)c(-c5ccc(O)cc5)coc4c3)cc(=O)oc2c1 [PT-119, 4-{[3-(4-hydroxyphenyl)-4-oxochromen-7-yloxy]methyl}-7-methoxychromen-2-one]		No	No	
Nc1cccc(-c2nnc(COc3ccc4c(=O)c(-c5ccc(O)cc5)coc4c3)o2)c1 [PT-121, 7-{[5-(3-aminophenyl)(1,3,4-oxadiazol-2-yl)]methoxy}-3-(4-hydroxyphenyl)chromen-4-one]		No	No	
CCOC(=O)c1cnn(CCOc2ccc3c(=O)c(-c4ccc(O)cc4)coc3c2)c1 [PT-122, ethyl 1-{2-[3-(4-hydroxyphenyl)-4-oxochromen-7-yloxy]ethyl}pyrazole-4-carboxylate]		No	No	

— patent US8158810B2 (Gilead Sciences, Inc., priority 2006, dated 2012)
